How the values were obtained:
[1] = biological target: cytochrome c (Homo sapiens, UniProt P99999); test: Cytochrome c reduction monitored by absorption spectroscopy (glutathione or NAC as reducing agent); assay type: biochemical
Experimental: Cytochrome c reduction: increasing amounts of aromatic-cationic peptides were added to a solution of oxidized cyt c. The formation of reduced cyt c was monitored by absorbance at […]. The rate of cyt c reduction was determined by non-linear analysis (Prizm software).
Time-resolved UV-Visible absorption spectroscopy was used to study the electron transport process of cyt c in the presence of peptides. Reduced cyt c was monitored by absorbance at a broad-band spectral range (200-1100 nm). The absorption changes were recorded with a UV/Visible spectrophotometer (Ultrospec 3300 pro, GE) in quartz cells with path lengths of 1 or 2 mm. N-acetylcysteine (NAC) and glutathione were used as electron donors to reduce oxidized cyt c. The rate constant of cyt c reduction was estimated by adding various concentrations of peptides. The dose dependence of the peptides was correlated to the cyt c reduction kinetics.
Absorption spectroscopy (UltroSpec 3300 Pro; 220-1100 nm) was used to determine if SS-31 modulates cyt c reduction (FIG. 1). Reduction of cyt c with glutathione is associated with multiple shifts in the Q band (450-650 nm), with a prominent shift at 550 nm.
Reduction of cyt c was monitored by increase in absorbance at 550 nm. […] Similar results were obtained using N-acetylcysteine (NAC) as a reducing agent (not shown).

[2] = tested on: cyt c-depleted mitoplasts; test: Respiration in cytochrome c-depleted mitoplasts; assay type: biochemical, rat
Experimental: Rates of respiration were measured in the presence of 500 μM Succinate with or without 100 μM SS-31. The experiment was carried out in triplicate, with n=3.
A model of cyt C tightly bound to mitochondrial cardiolipin was used to investigate interaction of SS-31 with cytochrome c-CL complex in mitochondria. After removal of outer membrane with digitonin, mitoplasts were washed with 120 mM KCl to remove all free and electrostatically associated cytochrome c, leaving only cytochrome c tightly bound to CL.

[3] = biological target: cytochrome c (with CL) (Homo sapiens, UniProt P99999); test: Cytochrome c reduction inhibited by CL; assay type: biochemical
cytochrome c (with CL), sequence (P99999 2-105 limits assumed, species assumed): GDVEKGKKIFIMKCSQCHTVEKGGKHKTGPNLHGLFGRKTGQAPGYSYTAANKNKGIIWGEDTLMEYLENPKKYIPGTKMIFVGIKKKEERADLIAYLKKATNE
Experimental: Cytochrome c is a carrier of electrons between respiratory complex III and IV in mitochondria. Cytochrome c is reduced (Fe^2+) after it accepts an electron from cytochrome c reductase, and it is then oxidized to Fe^3+ by cytochrome c oxidase.
Reduction of cytochrome c (20 μM) was induced by the addition of glutathione (500 μM) in the absence or presence of CL (100 μg/ml) (FIG. 25A). Reduction of cytochrome c was monitored by absorbance at 550 nm using a 96-well UV-VIS plate reader (Molecular Devices). Addition of CL decreased the rate of cytochrome c reduction by half.

[4] = biological target: T1, horse radish peroxidase (HRP) (Armoracia rusticana, UniProt P00433); test: HRP activity (amplex red); assay type: biochemical; conditions: data not shown
T1 sequence (P00433 31-338 limits assumed): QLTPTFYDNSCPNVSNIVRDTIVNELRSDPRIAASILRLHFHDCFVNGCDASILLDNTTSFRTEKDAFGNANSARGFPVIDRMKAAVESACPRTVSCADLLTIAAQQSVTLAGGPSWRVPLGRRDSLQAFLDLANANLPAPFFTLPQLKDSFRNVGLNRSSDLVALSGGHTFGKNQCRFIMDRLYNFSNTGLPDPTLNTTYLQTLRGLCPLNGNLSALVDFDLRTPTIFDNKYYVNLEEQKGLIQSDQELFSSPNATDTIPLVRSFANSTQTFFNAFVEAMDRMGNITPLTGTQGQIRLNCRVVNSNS
Source text: The six coordination of the heme in cytochrome c prevents direct interaction of H2O2 with the catalytic metal site, and native cytochrome c in solution is a poor peroxidase. Upon interaction with CL, cytochrome c undergoes a structural change with rupture of the Fe-Met80 coordination. […] The mechanism of action of cytochrome c peroxidase is similar to that of other peroxidases, such as horse radish peroxidase (HRP). Thus it is possible to use the amplex red-HRP reaction to investigate cytochrome c peroxidase activity. In the presence of peroxidase, amplex red (AR) reacts with H2O2 to form the red-fluorescent oxidation product, resorufin (Ex/Em=571/585).

cytochrome c, sequence (P99999 2-105 limits assumed, species assumed): as the sequence (P99999 2-105 limits assumed, species assumed) above

## D-Arg-2′6′Dmt-Lys-Phe-NH2 [SS-31]
[1]; N-acetylcysteine as reducing agent
  rate of NAC-induced cyt c reduction: dose-dependently increased the rate of NAC-induced cyt c reduction
[1]; absorbance at 550 nm, FIG. 13
  kinetics of cyt c reduction induced by glutathione (GSH): can accelerate the kinetics of cyt c reduction
[1]; peptide alone at 100 μM
  cyt c reduction by peptide alone: did not reduce cyt c
[1]; reduction of cyt c with glutathione, FIG. 1A
  spectral weight shift at 550 nm of cyt c: significant spectral weight shift at 550 nm
[1]; time-dependent spectroscopy, FIG. 1B
  rate of cyt c reduction: increased the rate of cyt c reduction
[2]; 500 μM succinate, 100 μM peptide, once-frozen rat kidney mitochondria, FIG. 7
  mitochondrial O2 consumption (respiration): Enhances Respiration in Cytochrome C-Depleted Mitoplasts
[2]; cytochrome c tightly bound to CL, digitonin, 120 mM KCl wash, dose-dependent, FIG. 28
  complex II respiration in mitoplasts: enhances complex II respiration
[3]; 500 μM GSH or 50 μM ascorbate, FIG. 25B
  inhibitory effect of CL on kinetics of cytochrome c reduction: dose-dependently overcame the inhibitory effect of CL
[3]; cytochrome c 20 μM, glutathione 500 μM, CL 100 μg/ml, peptide 20, 40 or 100 μM, FIG. 25A
  inhibitory action of CL on rate of cytochrome c reduction: dose-dependently prevented the inhibitory action of CL
[4]
  HRP activity: had no effect on HRP activity

From patent US20140349941A1, “AROMATIC-CATIONIC PEPTIDES AND USES OF SAME” (Cornell University, priority 2011, published 2014)
